# Measured values: patent publication US10689331B2, “IDO inhibitors” (Bristol-Myers Squibb Company, priority 2015, dated 2020)
# Biological target: T1, human IDO1 (Homo sapiens, UniProt P14902)
# T1 construct: expressed in transfected cells
# Assay: HEK Human IDO-1 inhibition assay (kynurenine readout, Ehrlich reagent, absorbance 490 nm)
# Assay type: cell-based
# Settings: human IDO1/HEK293 cells, incubated 20 hours with compound; 500 nM reference standard = 100% inhibition
# Method: HEK293 cells were transfected with a pCDNA-based mammalian expression vector harboring human IDO1 cDNA (NM 002164.2) by electroporation. They were cultured in medium (DMEM with 10% FBS) containing 1 mg/ml G418 for two weeks. Clones of HEK293 cells that stably expressed human IDO1 protein were selected and expanded for IDO inhibition assay.
# The human IDO1/HEK293 cells were seeded at 10,000 cells per 50 uL per well with RPMI/phenol red free media contains 10% FBS in a 384-well black wall clear bottom tissue culture plate (Matrix Technologies LLC) 100 nL of certain concentration of compound was then added to each well using ECHO liquid handling systems. The cells were incubated for 20 hours in 37° C. incubator with 5% CO2.
# The compound treatments were stopped by adding Trichloroacetic Acid (Sigma-Aldrich) to a final concentration at 0.2%. The cell plate was further incubated at 50° C. for 30 minute. The equal volume supernatant (20 uL) and 0.2% (w/v) Ehrlich reagent (4-dimethylaminobenzaldehyde, Sigma-Aldrich) in glacial acetic acid were mixed in a new clear bottom 384-well plate. This plate was then incubated at room temperature for 30 minute. The absorbance at 490 nm was measured on Envision plate reader. Compound IC50 values were calculated using the counts of 500 nM of a reference standard treatment as one hundred percent inhibition, and counts of no compound but DMSO treatment as zero percent inhibition.
# T1 sequence (P14902 whole entry): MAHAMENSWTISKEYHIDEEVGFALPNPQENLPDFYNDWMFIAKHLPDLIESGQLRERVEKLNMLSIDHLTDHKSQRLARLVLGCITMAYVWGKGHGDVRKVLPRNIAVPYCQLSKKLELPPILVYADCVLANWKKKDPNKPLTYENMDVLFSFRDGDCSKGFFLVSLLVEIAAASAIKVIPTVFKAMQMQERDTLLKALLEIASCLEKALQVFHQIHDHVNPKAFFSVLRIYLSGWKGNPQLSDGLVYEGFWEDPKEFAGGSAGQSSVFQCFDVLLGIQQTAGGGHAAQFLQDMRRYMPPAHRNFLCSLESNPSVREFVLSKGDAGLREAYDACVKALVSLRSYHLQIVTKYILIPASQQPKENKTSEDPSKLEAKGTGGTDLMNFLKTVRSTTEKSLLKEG
row,Structure (SMILES),IC50
1,"CC(C)CN(c1ccc(OC(C)C(=O)O)cc1Nc1nc2ccccc2o1)C1CCCCC1 (racemic) [Example 62, (±)-2-(3-(benzo[d]oxazol-2-ylamino)-4-(cyclohexyl (isobutyl)amino)phenoxy)propanoic acid]",≥ 0.1 µM
2,"COc1cnc(Nc2cc(OC(C)C(=O)O)ccc2N(CC(C)C)C2CCCCC2)nc1 (racemic) [Example 63, (±)-2-(4-(cyclohexyl(isobutyl)amino)-3-((5-methoxypyrimidin-2-yl)amino)phenoxy)propanoic acid]",≥ 0.1 µM
3,Cc1cc(NC(=O)Nc2cc(OC(C)C(=O)NS(=O)(=O)C3CC3)ccc2N(CC(C)C)C2CCCCC2)on1 (racemic) [Example 68],< 0.005 µM
4,"Cc1ccc(NC(=O)Nc2cc(OC(C)C(=O)NS(=O)(=O)C3CC3)ccc2N(CC(C)C)C2CCCCC2)cc1 (racemic) [Example 69, (±)-2-(4-(cyclohexyl(isobutyl)amino)-3-(3-(p-tolyl)ureido)phenoxy)-N-(cyclopropylsulfonyl)propanamide]",< 0.005 µM
5,"CC(C)CN(c1ccc(OC(C)C(=O)NS(=O)(=O)C2CC2)cc1NC(=O)Nc1ccc(Cl)cc1F)C1CCCCC1 (racemic) [Example 70, (±)-2-(3-(3-(4-chloro-2-fluorophenyl)ureido)-4-(cyclohexyl(isobutyl)amino)phenoxy)-N-(cyclopropylsulfonyl) propanamide]",< 0.005 µM
6,"CC(C)CN(c1ccc(OC(C)C(=O)O)cc1NC(=O)Cc1ccc(F)cc1F)C1CCCCC1 (racemic) [Example 71, 2-(4-(cyclohexyl(isobutyl)amino)-3-(2-(2,4-difluorophenyl)acet-amido)phenoxy)propanoic acid]",< 0.1 µM
7,"CC(C)CN(c1ccc(OC(C)C(=O)O)cc1NC(=O)Cc1ccc(Cl)c(F)c1)C1CCCCC1 (racemic) [Example 72, 2-(3-(2-(4-chloro-3-fluorophenyl)acetamido)-4-(cyclohexyl (isobutyl)amino)phenoxy)prop-anoic acid]",< 0.1 µM
8,CC(C)CN(c1ccc(OC(C)C(=O)O)cc1NC(=O)Cc1ccc(Cl)cc1F)C1CCCCC1 (racemic) [Example 73],< 0.1 µM
9,"CC(C)CN(c1ccc(OC(C)C(=O)O)cc1NC(=O)Cc1ccc(F)cc1)C1CCCCC1 (racemic) [Example 74, 2-(4-(cyclohexyl(isobutyl)amino)-3-(2-(4-fluorophenyl)acet-amido)phenoxy)propanoic acid]",≥ 0.1 µM
10,"Cc1ccc(CC(=O)Nc2cc(OC(C)C(=O)O)ccc2N(CC(C)C)C2CCCCC2)cc1 (racemic) [Example 75, 2-(4-(cyclohexyl(isobutyl)amino)-3-(2-(p-tolyl)acetamido)phenoxy)propanoic acid]",< 0.1 µM
11,"Cc1ccc(CC(=O)Nc2cc(OC(C)C(=O)O)ccc2N(CC(C)C)C2CCCCC2)c(F)c1 (racemic) [Example 76, 2-(4-(cyclohexyl(isobutyl)amino)-3-(2-(2-fluoro-4-methylphenyl)acetamido)phenoxy)propanoic acid]",< 0.1 µM
12,"CC(C)CN(c1ccc(OC(C)C(=O)NS(=O)(=O)C2CC2)cc1NC(=O)Cc1ccc(Cl)cc1F)C1CCCCC1 (racemic) [Example 77, (±)-2-(3-(2-(4-chloro-2-fluorophenyl)acetamido)-4-(cyclohexyl(isobutyl)amino)phenoxy)-N-(cyclopropylsulfonyl) propanamide]",< 0.1 µM
13,"Cc1ccc(CC(=O)Nc2cc(OC(C)C(=O)NS(=O)(=O)C3CC3)ccc2N(CC(C)C)C2CCCCC2)cc1 (racemic) [Example 78, (±)-2-(4-(cyclohexyl(isobutyl)amino)-3-(2-(p-tolyl)acetamido)phenoxy)-N-(cyclopropylsulfonyl)propanamide]",< 0.1 µM
14,"CC(C)CN(c1ccc(OC(C)C(=O)NS(=O)(=O)C2CC2)cc1NC(=O)Cc1ccc(Cl)c(F)c1)C1CCCCC1 (racemic) [Example 79, (±)-2-(3-(2-(4-chloro-3-fluorophenyl)acetamido)-4-(cyclohexyl(isobutyl)amino)phenoxy)-N-(cyclopropylsulfonyl) propanamide]",≥ 0.1 µM
15,CC(C)CN(c1ccc(OC(C(=O)O)C(C)C)cc1NC(=O)Nc1ccc(Cl)cc1F)C1CCCCC1 (racemic) [Example 83],< 0.005 µM
16,"Cc1ccc(NC(=O)Nc2cc(OC(C(=O)O)C(C)C)ccc2N(CC(C)C)C2CCCCC2)cc1 (racemic) [Example 84, (±)-2-(4-(cyclohexyl(isobutyl)amino)-3-(3-(p-tolyl)ureido)phenoxy)-3-methylbutanoic acid]",< 0.1 µM
17,"C=C(C)CN(c1ccc(OC(C)C(=O)O)cc1NC(=O)Nc1ccc(C)cc1)C1CCOCC1 (racemic) [Example 140, (+/−)-2-(4-((2-methylallyl)(tetrahydro-2H-pyran-4-yl)amino)-3-(3-(p-tolyl)ureido)phenoxy)propanoic acid]",≥ 0.1 µM
18,COc1ccc(NC(=O)Nc2cc(OC(C)C(=O)O)ccc2N(CC(C)C)C2CCCCC2)c(F)c1 (racemic) [racemic 64],< 0.005 µM
19,Cc1ccc(NC(=O)Nc2cc(OC(C)C(=O)O)ccc2N(CC(C)C)C2CCCCC2)c(F)c1 (racemic) [racemic 65],< 0.005 µM
20,CC(C)CN(c1ccc(OC(C)C(=O)O)cc1NC(=O)Nc1ccc(C#N)cc1)C1CCCCC1 (racemic) [racemic 66],≥ 0.1 µM
21,CCOC(=O)C(C)Oc1ccc(N(CC(C)C)C2CCCCC2)c(NC(=O)Nc2ccc(Cl)cc2F)c1 (racemic) [racemic 67],< 0.005 µM
22,CC(C)CN(c1cc(F)c(OC(C)C(=O)O)cc1NC(=O)Nc1ccc(Cl)cc1F)C1CCCCC1 (racemic) [racemic 136],< 0.005 µM
23,"CC(C)CN(c1ccc(OC(C)C(=O)O)cc1NC(=O)Nc1cncnc1)C1CCCCC1 (single isomer, unassigned) [Example 58-1, 2-(4-(cyclohexyl(isobutyl)amino)-3-(3-(pyrimidin-5-yl)ureido)phenoxy)propanoic acid]",≥ 0.1 µM
24,"CC(C)CN(c1ccc(OC(C)C(=O)O)cc1NC(=O)Nc1cncnc1)C1CCCCC1 (single isomer, unassigned) [Example 58-2, 2-(4-(cyclohexyl(isobutyl)amino)-3-(3-(pyrimidin-5-yl)ureido)phenoxy)propanoic acid]",< 0.1 µM
25,"CC(C)CN(c1ccc(OC(C)C(=O)O)cc1NC(=O)Nc1ccccc1F)C1CCCCC1 (single isomer, unassigned) [Example 59-1, 2-(4-(cyclohexyl(isobutyl)amino)-3-(3-(2-fluoro-phenyl)ureido)phenoxy)propanoic acid]",< 0.005 µM
26,"Cc1ccc(NC(=O)Nc2cc(OC(C)C(=O)O)ccc2N(CC(C)C)C2CCCCC2)cc1 (single isomer, unassigned) [Example 60-1, 2-(4-(cyclohexyl(isobutyl)amino)-3-(3-(p-tolyl)ureido)phenoxy)propanoic acid]",< 0.005 µM
27,"CC(C)CN(c1ccc(OC(C)C(=O)O)cc1NC(=O)Nc1ccc(Cl)cc1F)C1CCCCC1 (single isomer, unassigned) [Example 61-1, 2-(3-(3-(4-chloro-2-fluorophenyl)ureido)-4-(cyclo-hexyl(isobutyl)amino)phenoxy)propanoic acid]",< 0.005 µM
28,"CC(C)CN(c1ccc(OC(C)C(=O)O)cc1NC(=O)Nc1ccc(Cl)cc1F)C1CCCCC1 (single isomer, unassigned) [Example 61-2, 2-(3-(3-(4-chloro-2-fluorophenyl)ureido)-4-(cyclo-hexyl(isobutyl)amino)phenoxy)propanoic acid]",< 0.005 µM
